Patent US10501479B2, “Benzenesulfonyl-asymmetric ureas and medical uses thereof” (HELSINN HEALTHCARE SA, priority 2016, dated 2019)
“And” between values parts separate entries of the source, which are not always exact repeats. Identical values can stand only once. Like-named read-outs stand apart in the source and are kept apart here.

How the values were obtained:
[1] = Metabolic stability in human liver microsomes; assay type: in vitro ADME
Procedure: (§1) Metabolic Stability Study
(§2) The metabolic stability of compounds in human, dog, rat and mouse liver microsomes was performed according the experimental conditions reported below:
(§3) • a) Prepare the following 5 stock solutions: • 1. Test compound stock solutions: dilute 10 mM solution of dextromethorphan (Dtr) in DMSO, 10 mM solution of diphenhydramine (DPA) in DMSO, 10 mM solution of omeprazole (Ome) in DMSO, 10 mM solution of verapamil (Ver) in DMSO, and 10 mM of an inverse agonist compound in DMSO to 0.25 mM solution each with acetonitrile/water (70/30). • 2. Buffer: 100 mM potassium phosphate Buffer (PBS) at pH 7.4 • 3. Liver microsomes (20 mg/ml): Thaw in 37° C. water bath quickly • 4. 2000 μL: of NADPH regenerating system (1.3 mM). Place this system on ice before use:
(§4) • 5. […] The test compound concentration in the wells, measured by LC-MS/MS, represents the concentration at time=0. • f) To determine the test compound concentration when t≠0, pre-incubate the NADPH regenerating system and the incubation plate containing the remaining 320 μL of incubation mixture (microsomes protein and test compound) for 5 minutes at 37° C. • g) Start the incubation reaction by adding 80 μL NADPH regenerating system to each well containing the remaining 320 μL incubation mixture. • h) After 10 min., 30 min., and 90 min. of incubation at 37° C., transfer 100 μL of the incubation mixture (microsomes protein, test compound, and NADPH) into the wells of a stop plate pre-filled with 300 μL of the cold quench solution. Shake well. • i) Centrifuge the stop plate at 5000×g for 10 minutes. Collect and dilute the supernatant 3 times with distilled water. Sample and analyze the test compound concentration for all the wells by LC-MS/MS. Animal PK Studies via i.v. (intravenous), p.o. (orally) and s.c. (subcutaneous) administrations

[2] = biological target: T1, GHSR-1a (HEK293/GHSR1a cell line) (Homo sapiens, UniProt Q92847); assay: Ghrelin antagonist potency (IC50) with calcium FLIPR assay, ghrelin 10 nM; assay type: cell-based
T1 construct: expressed in transfected cells; host or cells: HEK293/GHSR1a cell line
Method in brief: (§5)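 Dye preload 30-60 min, RT or 37° C; compound in DMSO. Agonist mode: compound at t=20 sec, Ca2+ read 2 min. Antagonist mode: compound + ghrelin 10 nM at t=20 sec, 2 min read. EC50/IC50 from dose-response curves.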

[3] = Metabolic stability in mouse liver microsomes; assay type: in vitro ADME
Procedure: as §1, §2, §3, §4

[4] = biological target: T2, recombinant human ghrelin receptor (HEK293/GRLN) (Homo sapiens, UniProt Q92847); assay: Ghrelin inverse agonist potency (EC50) with IP-1 (IP-One HTRF) assay; assay type: cell-based; conditions: IP-1 assay
T2 construct: expressed in transfected cells
Method in brief: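 HEK293/GRLN cells were seeded 18-22 hours before the test, then exposed to compound in stimulation buffer for 1 hour at 37° C, 5% CO2. IP-1 was detected by IP-One HTRF (IP1-d2 plus Tb-cryptate, 1 hour RT), reading 620 and 665 nm; the inverse agonist EC50 was derived from this.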

[5] = biological target: T1, GHSR-1a (HEK293/GHSR1a cell line); assay: Ghrelin agonist potency (EC50) with calcium FLIPR assay; assay type: cell-based
Method in brief: as §5

[6] = ghrelin antagonist potency, read-out: IC50 (Activity)
[7] = inverse agonist potency, read-out: EC50 (Activity)
[8] = HEK293/GHSR1a, read-out: Activity EC50/EMax: EC50 (ghrelin agonist potency)
[9] = HEK293/GHSR1a, ghrelin 10 nM, read-out: Activity IC50 (ghrelin antagonist potency)
[10] = HEK293/GRLN, read-out: Activity EC50 (ghrelin inverse agonist potency)

T1 sequence (Q92847 whole entry): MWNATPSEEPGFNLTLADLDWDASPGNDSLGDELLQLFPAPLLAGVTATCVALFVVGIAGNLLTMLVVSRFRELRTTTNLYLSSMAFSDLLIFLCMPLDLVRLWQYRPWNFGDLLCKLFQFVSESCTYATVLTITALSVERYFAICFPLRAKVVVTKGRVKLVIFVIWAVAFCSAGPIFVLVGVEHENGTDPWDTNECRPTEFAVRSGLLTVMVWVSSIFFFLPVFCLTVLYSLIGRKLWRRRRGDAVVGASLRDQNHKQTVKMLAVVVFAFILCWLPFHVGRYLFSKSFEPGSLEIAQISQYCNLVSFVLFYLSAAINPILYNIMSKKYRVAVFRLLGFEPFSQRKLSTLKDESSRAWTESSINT
T2 sequence (Q92847 whole entry): as above

SMILES | Metabolic Stability Study H = human [1] | IC50 [2, 6] [µM] | Metabolic Stability Study M = mouse [3] | EC50 [4, 7] | EC50 [5, 8] [µM] | IC50 [2, 9] [µM] | EC50 [4, 10] [µM] | EC50 ([5]; ghrelin agonist potency, read-out: Activity EC50/EMax) [µM] | EC50 ([4]; ghrelin inverse agonist potency, read-out: Activity EC50) [µM]
C[C@H](NC(=O)Nc1ccc(S(=O)(=O)Nc2cnc(N)nc2)cc1)c1cccc(Cl)c1Cl [H1108] | 38.7 µL/min/mg | 0.422 | 47.5 µL/min/mg | 0.117 µM | – | – | – | – | –
C[C@H](NC(=O)Nc1ccc(S(=O)(=O)Nc2ccnc(N)n2)cc1)c1cccc(Cl)c1Cl [H1125, (S)-N-(2-aminopyrimidin-4-yl)-4-(3-(1-(2,3-dichlorophenyl)ethyl)ureido) benzenesulfonamide] | 10.7 µL/min/mg | 0.893 | 14.9 µL/min/mg | 0.0933 µM | – | – | – | – | –
C[C@H](NC(=O)Nc1ccc(S(=O)(=O)Nc2ccc(N)cn2)cc1)c1cccc(Cl)c1Cl.Cl [H1127, (S)-N-(5-aminopyridin-2-yl)-4-(3-(1-(2,3-dichlorophenyl)ethyl)ureido) benzenesulfonamide] | 41 µL/min/mg | 0.861 | 59.5 µL/min/mg | 0.0947 µM | – | – | – | – | –
COc1ccc(C(C)NC(=O)Nc2ccc(S(=O)(=O)Cc3ccc4c(c3)CNC4)cc2)c2ccccc12 (stereo not shown) [H1154, 1-(4-((isoindolin-5-ylmethyl)sulfonyl)phenyl)-3-(1-(4-methoxynaphthalen-1-yl)ethyl)urea] | 19.2 µL/min/mg | 0.126 | 22.9 µL/min/mg | 0.0298 µM and 0.0268 µM | – | – | – | – | –
CC(NC(=O)Nc1ccc(S(=O)(=O)Nc2ccc3c(c2)CNC3)cc1)c1ccccc1.Cl (stereo not shown) [H1156, N-(isoindolin-5-yl)-4-(3-(1-phenylethyl)ureido) benzenesulfonamide] | 18.1 µL/min/mg | 0.0103 | 12.9 µL/min/mg | 0.00426 µM | – | – | – | – | –
CC(NC(=O)N(O)c1ccc(S(=O)(=O)Nc2ccc3c(c2)CNC3)cc1)c1cccc2ccccc12 (stereo not shown) [H1166, 4-(1-hydroxy-3-(1-(naphthalen-1-yl)ethyl)ureido)-N-(isoindolin-5-yl)benzenesulfonamide] | 19.9 µL/min/mg | 0.009 | 14.5 µL/min/mg | 0.0071 µM | – | – | – | – | –
Cl.O=C(NCc1ccccc1)Nc1ccc(S(=O)(=O)Cc2ccc3c(c2)CNC3)cc1 [H1179, 1-benzyl-3-(4-((isoindolin-5-ylmethyl)sulfonyl)phenyl)urea] | 14.9 µL/min/mg | 0.143 | < 10 µL/min/mg | 0.0374 µM | – | – | – | – | –
CN1Cc2ccc(CS(=O)(=O)c3ccc(NC(=O)NCc4ccccc4)cc3)cc2C1 [H1193, 1-benzyl-3-(4-(((2-methylisoindolin-5-yl)methyl)sulfonyl)phenyl)urea] | 49.8 µL/min/mg | 0.324 | 43.7 µL/min/mg | 0.064 µM | – | – | – | – | –
CC(NC(=O)Nc1ccc(S(=O)(=O)Cc2ccc3c(c2)CN(Cc2ccccc2)C3)cc1)c1ccccc1 (stereo not shown) [H1219, 1-(4-(((2-benzylisoindolin-5-yl)methyl)sulfonyl)phenyl)-3-(1-phenylethyl)urea] | H > 500 M > 500 R = not reported D = not reported μL/min/mg | 0.00777 | H > 500 M > 500 R = not reported D = not reported μL/min/mg | 0.163 µM | – | – | – | – | –
CCN1Cc2ccc(CS(=O)(=O)c3ccc(NC(=O)NC(C)c4ccccc4)cc3)cc2C1 (stereo not shown) [H1221, 1-(4-(((2-ethylisoindolin-5-yl)methyl)sulfonyl)phenyl)-3-(1-phenylethyl)urea] | 111.2 µL/min/mg | 0.0081 | 107.7 µL/min/mg | 0.0387 µM | – | – | – | – | –
CN1Cc2ccc(CS(=O)(=O)c3ccc(NC(=O)NC(c4ccccc4)C(F)(F)F)cc3)cc2C1 (stereo not shown) [H1227, 1-(4-(((2-methylisoindolin-5-yl)methyl)sulfonyl)phenyl)-3-(2,2,2-trifluoro-1-phenylethyl)urea] | 99.4 µL/min/mg | 0.0384 | 79.9 µL/min/mg | 0.175 µM | – | – | – | – | –
CCN1Cc2ccc(C(C)S(=O)(=O)c3ccc(NC(=O)NC(C)c4ccccc4)cc3)cc2C1 (stereo not shown) [H1234, 1-(4-((1-(2-ethylisoindolin-5-yl)ethyl)sulfonyl)phenyl)-3-(1-phenylethyl)urea] | 149.8 µL/min/mg | 0.0426 | 122.7 µL/min/mg | 0.0154 µM | – | – | – | – | –
CCC(NC(=O)Nc1ccc(S(=O)(=O)Cc2ccc3c(c2)CN(C)C3)cc1)c1ccccc1 (stereo not shown) [H1235, 1-(4-(((2-methylisoindolin-5-yl)methyl)sulfonyl)phenyl)-3-(1-phenylpropyl)urea] | 102.4 µL/min/mg | 0.032 | 87.1 µL/min/mg | 0.0061 µM | – | – | – | – | –
Cc1oc(=O)oc1COC(=O)N1Cc2ccc(CS(=O)(=O)c3ccc(NC(=O)NC(C)c4ccccc4)cc3)cc2C1 (stereo not shown) [H1256, (5-methyl-2-oxo-1,3-dioxol-4-yl)methyl 5-(((4-(3-(1-phenylethyl)ureido)phenyl)sulfonyl)methyl)isoindoline-2-carboxylate] | 268.4 µL/min/mg | – | 272.6 µL/min/mg | – | > 30 | 0.09 | 0.124 | – | –
CC(NC(=O)Nc1ccc(S(=O)(=O)Cc2ccc3c(c2)CNC3)cc1)c1cccc(Cl)c1 (stereo not shown) [H1260, 1-(1-(3-chlorophenyl)ethyl)-3-(4-((isoindolin-5-ylmethyl)sulfonyl)phenyl)urea] | 38.9 µL/min/mg | – | 24.7 µL/min/mg | – | > 30 | 0.0037 | 0.0044 | – | –
C[C@@H](NC(=O)Nc1ccc(S(=O)(=O)Cc2ccc3c(c2)CN(C)C3)cc1)c1ccccc1 [H1300, (R)-1-(4-(((2-methylisoindolin-5-yl)methyl)sulfonyl)phenyl)-3-(1-phenylethyl)urea] | 124.3 µL/min/mg | – | 42.1 µL/min/mg | – | > 30 | – | – | – | –
C[C@@H](NC(=O)Nc1ccc(S(=O)(=O)Cc2ccc3c(c2)CN(C)C3)cc1)c1ccccc1 [H1356, (R)-1-(4-(((2-methylisoindolin-5-yl)methyl)sulfonyl)phenyl)-3-(1-phenylethyl)urea] | 382.5 µL/min/mg | – | 126 µL/min/mg | – | > 30 | – | – | – | –
CC(NC(=O)Nc1c(F)cc(S(=O)(=O)Cc2ccc3c(c2)CNC3)cc1F)c1ccccc1.O=C(O)C(F)(F)F (stereo not shown) [H1404, 1-(2,6-difluoro-4-((isoindolin-5-ylmethyl)sulfonyl)phenyl)-3-(1-phenylethyl)urea] | 10 µL/min/mg | – | 19 µL/min/mg | – | > 30 | 1.62 | – | – | –
COc1cc(S(=O)(=O)Cc2ccc3c(c2)CCNC3)ccc1NC(=O)N[C@H](C)c1cccc(Cl)c1Cl [H1481, (R)-1-(1-(2,3-dichlorophenyl)ethyl)-3-(2-methoxy-4-(((1,2,3,4-tetrahydroisoquinolin-6-yl)methyl)sulfonyl)phenyl)urea] | < 10 µL/min/mg | – | 13.2 µL/min/mg | – | – | – | – | > 30 | 0.0002
